# Measured values: patent US10138275B2, “Crystalline powder of cyclic peptide compound, preparation method for same, and uses thereof” (SHANGHAI TECHWELL BIOPHARMACEUTICAL CO., LTD, priority 2014, dated 2018)
# Starred links: 1 amine or outer side, 2 acyl side, 3 side chain; linkers in the order of their positions; H or OH if unused. Positions of bridges follow the written chain, without caps; N, C: chain ends. Non-standard residues stand in square brackets, D forms with d. Residues, ends and D or L forms follow the SMILES beside them. *: point of attachment. hTyr(3S-OH,4S-OH,3'-OSO3H) = N[C@H](C(=O)O)[C@H](O)[C@@H](O)c1ccc(O)c(OS(=O)(=O)O)c1; Orn(4R-OH,5R-OH) = O=C([C@H](C[C@@H](O)[C@@H](O)N[*:3])N[*:1])[*:2]; Pro(3S-OH,4S-Me) = C[C@H]1CN[C@H](C(=O)O)[C@H]1O; X1 = CCCCCOc1ccc(-c2cc(-c3ccc(C(=O)*)cc3)no2)cc1; Gln(3R-OH) = NC(=O)C[C@@H](O)[C@H](N)C(=O)O; Hyp = O=C(O)[C@@H]1C[C@@H](O)CN1
# What was measured:
# Type in all cases: physicochemical
# [1] = Bulk density of powder by cylinder measurement; settings: after drying
# Protocol: “Bulk density of powder” is a measurement standard for the relative importance of the interaction between microparticles by comparing the bulk density and tapped density of the powder. Methods for measuring bulk density of powder are known in the art; for example, it can be determined by cylinder measurement, volumetric measurement, and container measurement. Bulk density of the crystalline powder of the compound of formula I according to the present invention is determined as less than 0.7 g/mL, preferably less than 0.6 g/mL, most preferably less than 0.5 g/mL, by cylinder measurement.
# [2] = Particle size distribution (d10, d50) by Malvern particle size analyzer / laser diffraction
# Protocol: […] Wherein, d10 and d50 are means known for indicating the particle size distribution. d50 refers to a value of particle size, and the size of 50 vol/% of particles is smaller than said value. D10 refers to a value of particle size, and the size of 10 vol/% of particles is smaller than said value. The preferred method for determining d10 and d50 is laser diffraction, d50 of the crystalline powder of the compound of formula I according to the present invention is determined as 10-100 um, and d10 is determined as 1-9 um. Preferably, d50 of the crystalline powder is 20-50 um, and d10 thereof is 1-5 um. Before solid-liquid separation, d50 of the crystalline powder of the compound of formula I is 10-100 um, and d10 thereof is 1-9 um. Preferably, d50 of the crystalline powder is 20-50 um, and d10 thereof is 3-6 um.
# [3] = Filtration through a Buchner funnel until no noticeable droplet outflowed
# Text: In this example, the precipitated solids from Examples 2-10 and Comparative Examples 1-3 were filtered through a Buchner funnel until no noticeable droplet outflowed, and the filtration processes were compared.
# [4] = Vacuum-drying at 25° C. with a water system until no organic solvent detected by GC; purity by HPLC
# Text: High performance liquid chromatography (HPLC) is a common method for determining the purity of a compound, wherein a liquid is used as the mobile phase and a high-pressure transfusion system is used for pumping the mobile phase, such as single solvents with different polarities, a mixture of solvents at different proportions, or buffers, into a column packed with a stationary phase. Each component is separated in the column, and then enters into a detector for detection, thereby analyzing a sample. In the present invention, HPLC is used for determining the purity of the compound of formula I and studying the stability of a sample. Conditions of the HPLC method are listed as follows:
# Analysis Column: YMC-ODS 250×4.6 mm, 5 μm;
# Mobile phase: acetonitrile:phosphate buffer (pH 3.0)=45:70;
# Column temperature: 35° C.;
# Diluent: aqueous phosphate buffer;
# Detection wavelength: 210 nm;
# Gas chromatography (GC) used to separate and measure trace impurities in a compound is an accurate, qualitative and quantitative method of analysis. In the present invention, the content of organic solvents in the crystalline powder of the compound of formula I obtained in the present invention is measured by gas chromatography (GC).
# 5 g of solids were prepared according to the methods of Examples 2-10 and Comparative Examples 1-3 respectively, placed at 25° C., and vacuum-dried together with a water system until no organic solvent was detected through GC. The time for drying was compared, and the purity of the sample was analyzed.
# [5] = Exposure of dried B82 crystal to the environment (moisture uptake, stability)
# Text: Before drying of the crystals, the content of solvent in the compound of formula I (Dry/Wet) was about 0.25, and a large amount of organic solvent was trapped in the crystal. To render the content of solvent in compliance with the requirements for active pharmaceutical ingredients (API), the drying temperature or the drying time has to be increased during the drying process. Such drying process, however, will increase the degradation product of the compound of formula I, seriously affecting the quality and stability of API.
# [6] = Ratio of dry weight to wet weight (Dry/Wet) of filtered solids; settings: wet solids weighed after filtration, before drying
# Text: As used herein, the term “Dry/Wet” and “ratio of dry weight to wet weight” can be used interchangeably, both of which refer to the ratio of the weight of a compound without solvent(s) to the weight of the compound with solvent(s). In the present invention, wet weight of crystals is obtained by filtering the crystallized solids until no noticeable droplet outflows and weighing the solids.
smiles,measurement,setting,value
"CCCCCOc1ccc(-c2cc(-c3ccc(C(=O)N[C@H]4C[C@@H](O)[C@@H](O)NC(=O)[C@@H]5[C@@H](O)[C@@H](C)CN5C(=O)[C@H]([C@H](O)CC(N)=O)NC(=O)[C@H]([C@H](O)[C@@H](O)c5ccc(O)c(OS(=O)(=O)[O-])c5)NC(=O)[C@@H]5C[C@@H](O)CN5C(=O)[C@H]([C@@H](C)O)NC4=O)cc3)no2)cc1.[Na+] [Comparative Example 1, reference compound] (X1-[Orn(4R-OH,5R-OH)]T[Hyp][hTyr(3S-OH,4S-OH,3'-OSO3H)][Gln(3R-OH)][Pro(3S-OH,4S-Me)]; lactam 1-C)",Bulk density,[1],0.85 g/mL
same,Bulk density,[1]; listed as B82-type crystals,about 0.8 g/mL
same,d50 of the obtained crystals,[2]; B82-type crystal prepared per Example 1 of WO03/018615,0.2-1.0 um
same,"d10, particle size of the crystalline powder",[2]; after drying,0.25 um
same,"d50, particle size of the crystalline powder",[2]; after drying,0.7 um
same,Time for filtration,[3],90 min
same,time Needed (for drying),"[4]; 25° C., vacuum-drying with a water system until no organic solvent detected by GC",25 h
same,Purity before drying,"[4]; HPLC, 5 g of solids",99.26%
same,Purity after drying,"[4]; HPLC, vacuum-dried at 25° C. with a water system until no organic solvent detected by GC",97.96%
same,moisture absorption when exposed to the environment,[5],inclined to absorb moisture
same,stability when exposed to the environment,[5],poor stability
same,ratio of dry weight to wet weight (Dry/Wet),[6],0.25
same,ratio of dry weight to wet weight (Dry/Wet),[6]; listed as B82-type crystals,about 0.25
